Results as given in patent publication US12501899B2, “Mite infestation treatment” (priority 2019, dated 2025).
Structures can show the parent of a compound that is named as a salt. Where two headings read alike, the source gives them in different places.

How the values were obtained:
Ixodes ricinus = assay: Oral acaricidal test on ticks in membrane feeding wells with treated blood; format: in vivo; conditions: for mortality at 1 ppm / mortality at 10 ppm / mortality at 100 ppm: Ixodes ricinus, po
Description: A laboratory study was conducted to determine the oral acaricidal properties of three compounds according to the invention (SN0305, SN0306 and SN0307) against Ixodes ricinus. Each compound was tested at 1, 10 and 100 ppm, and compared to a negative control corresponding to solvent alone (0.1% DMSO). Amitraz at 100 ppm was used as a positive control.
The Ixodes ricinus ticks (nymphs and adults) were placed for 24 hours on a membrane in feeding wells containing blood mixed with the tested compounds. Tick mortality (number of dead, moribund, or unaffected ticks in each well), attachment to the membrane (number of ticks attached/detached in each well), and the behavior (presence or absence of twitches) were examined 1, 3, 6, 12, 24, 48, 72, and 96 hours after the onset of tick exposure to the compounds.
Ticks (Ixodes ricinus) were collected. Collected adult females were kept separate from the nymphs and both were placed in sterile tubes in a humidity chamber to provide ˜80% humidity and 17° C. Only healthy ticks (females/nymphs) were chosen for the experiment.
Batches of 12 adults or nymphs were inserted into the feeding wells. After about 24 hours, their attachment was examined with a brush.
The efficiency of three compounds (SN0305, SN0306 and SN0307), each tested at three concentrations (1, 10, 100 ppm), was compared to the solvent control (0.1% DMSO, Sigma-Aldrich D-5879; Lot 101K0028) and to the positive control (Amitraze at 100 ppm).
Silicone-coated membranes with a thickness comprised between 110 and 140 μm were used for the construction of the feeding units.
Feeding units (sterilized acrylic glass tubes) were placed in feeding wells made of sterilized six-well plates.
3.1 ml of sterile 10^−3 M ATP-enriched blood was applied to each feeding well. Feeding wells were then inserted into a heated water bath (FIG. 12) and maintained at 37° C.±2° C.
Stock solutions of 100,000 ppm were prepared and tenth dilutions were carried out in 0.1% DMSO to reach the desired concentrations. After tick attachment (24 hours after placing the ticks in the feeding wells), 3.1 μl of the solutions were added to each feeding well containing 3.1 ml of blood. Blood was changed after 12 hours with fresh supplementation of the compounds to be tested. The ticks were exposed to the product for a total of 24 hours, after which the blood was again changed to fresh, untreated blood.
Tick mortality (number of dead, moribund or unaffected ticks in each well), attachment (number of attached/detached ticks in each well) and behavior (presence, absence and intensity of convulsions) were examined 1, 3, 6, 12, 24, 48, 72, and 96 hours after the start of tick exposure to the compound.

Varroa destructor = conditions: 0.1 μg/μL in ethanol
Description: About 300 bees (Apis mellifera) infected with Varroa destructor were taken from a hive superinfected with Varroa destructor. The bees were then placed in a device allowing to detach Varroa mites attached to the bees (device described in Community model n° 003419415-0001) filled with icing sugar. The device was stirred for 2 minutes to sample the Varroa mites attached to the bees. The icing sugar allows to interfere between the bee and the Varroa mite that was attached thereto. Varroa mites were harvested with icing sugar because they pass through the holes in the device, unlike bees. The Varroa mites were then separated from the icing sugar.
The Varroa mites thus recovered were dispatched in boxes (10 Varroa mites per box).
The bees were then dispatched in the boxes (10 per box).
The bees were then put to sleep for a few minutes using CO2 (flow of 3 liters for 20 seconds) in order to deposit 1 μL of compound to be tested on their thorax using a pipette. It should be noted that the bees which received romifidine hydrochloride at a concentration of 10 μg/μL received 2 μL of product. The bees were unconscious for the time the compound to be tested was deposited, that is to say around three minutes, then they woke up.
After thoracic deposition of the compound to be tested, the 10 bees from the same box were transferred to a box containing the 10 Varroa mites (cf. “Preparation of Varroa mites” above). Liquid sugar was left in each of the boxes to feed the bees during the observations. The series of boxes was then placed in an oven at […] with a humidity of 50% in order to approximate hive conditions as closely as possible.
The mortality of Varroa mites and bees was then monitored 5 minutes, 2 hours, 4 hours and 24 hours after application of the compound to be tested to the bees. Dead Varroa mites correspond to Varroa mites detached from the bees. Dead bees correspond to bees which no longer move and which are often placed on their thorax.
The following compositions were applied to the thorax of the bees: • Solvent, • Amitraz at 1 μg/μL in acetone, • Clonidine hydrochloride at 100 μg/μL, 10 μg/μL, 1 μg/μL and 0.1 μg/μL in methanol, • Detomidine hydrochloride monohydrate at 1 μg/μL in methanol, • Dexmedetomidine hydrochloride at 100 μg/μL, 10 μg/μL, 1 μg/μL and 0.1 μg/μL in methanol, • Romifidine hydrochloride at 10 μg/μL and at 5 μg/μL in methanol, • Tizanidine hydrochloride at 1 μg/μL in methanol, • Medetomidine hydrochloride at 0.1 μg/μL in ethanol, • Levomedetomidine hydrochloride at 100 μg/μL, 10 μg/μL, 1 μg/μL and 0.1 μg/μL in methanol, • Octopamine at 1 μg/μL in ethanol. Results

[1] = adult ticks, 1 h, read-out: average percentage of adult tick mortality (moribund or dead adult ticks)
[2] = adult ticks, 3 h, read-out: average percentage of adult tick mortality (moribund or dead adult ticks)
[3] = adult ticks, 6 h, read-out: average percentage of adult tick mortality (moribund or dead adult ticks)
[4] = adult ticks, 12 h, read-out: average percentage of adult tick mortality (moribund or dead adult ticks)
[5] = adult ticks, 24 h, read-out: average percentage of adult tick mortality (moribund or dead adult ticks)
[6] = adult ticks, 48 h, read-out: average percentage of adult tick mortality (moribund or dead adult ticks)
[7] = adult ticks, 72 h, read-out: average percentage of adult tick mortality (moribund or dead adult ticks)
[8] = adult ticks, 96 h, read-out: average percentage of adult tick mortality (moribund or dead adult ticks)
[9] = nymphs, 1 h, read-out: average percentage of mortality of tick nymphs (moribund or dead nymphs)
[10] = nymphs, 3 h, read-out: average percentage of mortality of tick nymphs (moribund or dead nymphs)
[11] = nymphs, 6 h, read-out: average percentage of mortality of tick nymphs (moribund or dead nymphs)
[12] = nymphs, 12 h, read-out: average percentage of mortality of tick nymphs (moribund or dead nymphs)
[13] = nymphs, 24 h, read-out: average percentage of mortality of tick nymphs (moribund or dead nymphs)
[14] = nymphs, 48 h, read-out: average percentage of mortality of tick nymphs (moribund or dead nymphs)
[15] = nymphs, 72 h, read-out: average percentage of mortality of tick nymphs (moribund or dead nymphs)
[16] = nymphs, 96 h, read-out: average percentage of mortality of tick nymphs (moribund or dead nymphs)

Compound: Cc1cccc(C(C)c2cnc[nH]2)c1C (racemic) [Medetomidine hydrochloride]
- effect in terms of tick detachment (in words) (Ixodes ricinus; 1, 10, 100 ppm, nymphs and adults): very limited effect
- mortality at 1 ppm (Ixodes ricinus; [1]): 0%
- mortality at 1 ppm (Ixodes ricinus; [2]): 0%
- mortality at 1 ppm (Ixodes ricinus; [3]): 2.3%
- mortality at 1 ppm (Ixodes ricinus; [4]): 7.3%
- mortality at 1 ppm (Ixodes ricinus; [5]): 47.6%
- mortality at 1 ppm (Ixodes ricinus; [6]): 97.7%
- mortality at 1 ppm (Ixodes ricinus; [7]): 100%
- mortality at 1 ppm (Ixodes ricinus; [8]): 100%
- mortality at 10 ppm (Ixodes ricinus; [1]): 0%
- mortality at 10 ppm (Ixodes ricinus; [2]): 0%
- mortality at 10 ppm (Ixodes ricinus; [3]): 9.6%
- mortality at 10 ppm (Ixodes ricinus; [4]): 9.6%
- mortality at 10 ppm (Ixodes ricinus; [5]): 53.9%
- mortality at 10 ppm (Ixodes ricinus; [6]): 91.2%
- mortality at 10 ppm (Ixodes ricinus; [7]): 100%
- mortality at 10 ppm (Ixodes ricinus; [8]): 100%
- mortality at 100 ppm (Ixodes ricinus; [1]): 0%
- mortality at 100 ppm (Ixodes ricinus; [2]): 0%
- mortality at 100 ppm (Ixodes ricinus; [3]): 12.5%
- mortality at 100 ppm (Ixodes ricinus; [4]): 18.1%
- mortality at 100 ppm (Ixodes ricinus; [5]): 53.1%
- mortality at 100 ppm (Ixodes ricinus; [6]): 84.7%
- mortality at 100 ppm (Ixodes ricinus; [7]): 93.8%
- mortality at 100 ppm (Ixodes ricinus; [8]): 100%
- mortality at 1 ppm (Ixodes ricinus; [9]): 0%
- mortality at 1 ppm (Ixodes ricinus; [10]): 0%
- mortality at 1 ppm (Ixodes ricinus; [11]): 19.5%
- mortality at 1 ppm (Ixodes ricinus; [12]): 38.9%
- mortality at 1 ppm (Ixodes ricinus; [13]): 61.8%
- mortality at 1 ppm (Ixodes ricinus; [14]): 93.9%
- mortality at 1 ppm (Ixodes ricinus; [15]): 100%
- mortality at 1 ppm (Ixodes ricinus; [16]): 100%
- mortality at 10 ppm (Ixodes ricinus; [9]): 0%
- mortality at 10 ppm (Ixodes ricinus; [10]): 10.4%
- mortality at 10 ppm (Ixodes ricinus; [11]): 38.4%
- mortality at 10 ppm (Ixodes ricinus; [12]): 58.5%
- mortality at 10 ppm (Ixodes ricinus; [13]): 78.7%
- mortality at 10 ppm (Ixodes ricinus; [14]): 85%
- mortality at 10 ppm (Ixodes ricinus; [15]): 95.8%
- mortality at 10 ppm (Ixodes ricinus; [16]): 100%
- mortality at 100 ppm (Ixodes ricinus; [9]): 0%
- mortality at 100 ppm (Ixodes ricinus; [10]): 9.1%
- mortality at 100 ppm (Ixodes ricinus; [11]): 38.5%
- mortality at 100 ppm (Ixodes ricinus; [12]): 69.2%
- mortality at 100 ppm (Ixodes ricinus; [13]): 94.4%
- mortality at 100 ppm (Ixodes ricinus; [14]): 100%
- mortality at 100 ppm (Ixodes ricinus; [15]): 100%
- mortality at 100 ppm (Ixodes ricinus; [16]): 100%
- ticks affected (convulsion, morbidity or death of ticks) (Ixodes ricinus; from 1 hour of exposure, regardless of the concentration tested (1, 10, 100 ppm)): 100%
- Varroacid effect (in words) (Varroa destructor): very effective
